Laboratory results: patent publication US20230270713A1, “Administration of Resiniferatoxin For Treatment of Bladder Pain or Bladder Cancer” (Sorrento Therapeutics, Inc., priority 2020, published 2023)

Legend:
[1] = system: cats with FIC (Feline Idiopathic Cystitis); experiment: Cystitis Events Survey in cats with Feline Idiopathic Cystitis; type: in vivo, cat; details: for Cystitis Improvement ≥2 Point, cats n/N / Cystitis Improvement ≥3 Point, cats n/N / Cystitis Improvement ≥2 Point, percent of cats / Cystitis Improvement ≥3 Point, percent of cats: Day 28
Text: The Cystitis Events Survey consists a 5-point scale, ranging from 0=normal cat to 5=very severe sign of cystitis. Clinical signs of cystitis included in this survey are: increased frequency of urination; straining while urinating; crying out/vocalizing while urinating; presence of blood in urine; urination outside of litter box; and increased grooming around perineum.
(§1) The use of the Cystitis Events Survey was exploratory, and no strict definition of success was applied to the results. However, and based on published literature, the results were described as follows: (1) percentage of cats per cohort with an average improvement of 2 or more points and no increase in any individual score on Day 28; and (2) percentage of cats per cohort with an average improvement of 3 or more points and no increase in any individual score on Day 28.
[…] Intravesical instillation: After the cat has reached an adequate anesthesia level, the perineal area was prepared using a standard aseptic technique. After preparation, a urinary catheter (type and size decided on a case by case basis) was placed using aseptic technique. Then, the urinary bladder was emptied and flushed with 20 ml of sterile saline. Once the flush solution was removed, the RTX solution was infused through the urinary catheter over 2 minutes. Once the total volume of the solution is infused, the solution was left in the urinary bladder for 20 min. At the end of this period the IVP (investigational veterinary product) solution was removed. Finally, the urinary catheter was removed, and the perineal area was flushed with 20 ml of saline. The total amount of solution removed from the bladder was recorded.
24 cats were treated and the cohorts and their respective IVP treatments are described in the table 9 below. The cohorts were populated and dosed sequentially. Cats enrolled in Cohorts 2, 3 and 4 were dosed at least 3 days after the previous cohort closed.

[2] = system: cats with FIC (Feline Idiopathic Cystitis); experiment: VSOM and Cystitis Events Survey combined effect in FIC cats; type: in vivo, cat; details: for Cystitis ≥2 and VSOM ≥2 Point success, cats n/N / Cystitis ≥3 and VSOM ≥2 Point success, cats n/N / Cystitis ≥3 and VSOM ≥2 Point success, percent of cats / Cystitis ≥2 and VSOM ≥2 Point success, percent of cats: Day 28
Text: Treatment success was defined as “a reduction of at least 2 in total VSOM score at Day 3 and 28 compared to VSOM score at day 0.” A decrease of less than 2, no change, or an increase in total score was defined as treatment failure. Cats presenting an increase in any individual VSOM score were considered a treatment failure regardless of total VSOM score.
as §1
When the results were combined for VSOM improvement of ≥2 and cystitis improvement of ≥3, the effectiveness decreased from 100% to 80% (see Cohort 1). […] Overall, the decrease was approximately 20% in Cohorts 1-2.

[3] = system: CGRP and SP afferent nerve fibers (TRPV1 axons) innervating the cat bladder; experiment: Density of CGRP and SP afferent nerve fibers in cat bladder (IHC, confocal); type: in vivo
Experimental: To examine the effect of intravesical instillation of RTX on the bladder, 6 healthy cats, between the 2-5 years of age, were treated with either 5 (low dose), 25 (mid dose) or 50 mcg (high dose) of RTX (volume was 25 ml; concentrations were 0.2, 1, and 2 mcg/ml). These doses are considered equivalent to administration of 20, 100, or 200 mcg in a human with a volume of 100 ml. A seventh cat received saline only and served as the control. The bladders of the anesthetized cats were emptied and then flushed with sterile saline via a foley urinary catheter. Once the saline was removed, the treatment with RTX (test cats) or saline alone (control cat) was administered over 60 seconds and left in the bladder for 20 minutes.
At day 14 the cats were anesthetized and perfused with saline followed by 10% formalin. After confirmation of successful euthanasia, lumbar and sacral segments of the spinal cord with corresponding dorsal spinal ganglia, the urinary bladder and urethra were harvested and tissues were prepared for immunohistochemistry.
Previous studies have shown that TRPV1-immunoreactive axons co-express Calcitonin gene-related peptide (CGRP) and substance P (SP) (See, e.g., Sharrad et al. (2015) Neurosci. Lett., 599: 164-171; Bae et al. (2004) J. Comp. Neurol. 478: 62-71). Since feline bladder connective tissue, smooth muscle, and cell bodies of S2 DRG express CGRP+ and SP+ axons, expression of CGRP and SP were used in these studies to identify the majority of TRPV1 axons innervating the cat bladder and TRPV1+ cell bodies in cat S2 dorsal root ganglia (DRG).

[4] = 6.25 μg (0.25 μg/mL), Day 0, n 6
[5] = 6.25 μg (0.25 μg/mL), Day 28, n 6
[6] = 12.5 μg (0.5 μg/mL), Day 0, n 6
[7] = 12.5 μg (0.5 μg/mL), Day 28, n 5
[8] = 12.5 μg (1.25 μg/mL), Day 0, n 6
[9] = 12.5 μg (1.25 μg/mL), Day 28, n 6

C=C(C)[C@]12C[C@@H](C)[C@@]34O[C@](Cc5ccccc5)(O[C@@H]1[C@@H]3C=C(COC(=O)Cc1ccc(O)c(OC)c1)C[C@]1(O)C(=O)C(C)=C[C@@H]41)O2 [RTX, resiniferatoxin]
cystitis events survey, Maximum [1, 4]: 18.0
cystitis events survey, Mean [1, 4]: 13.00
cystitis events survey, Median [1, 4]: 12.00
cystitis events survey, Minimum [1, 4]: 10.0
cystitis events survey, Maximum [1, 5]: 14.0
cystitis events survey, Mean [1, 5]: 8.33
cystitis events survey, Median [1, 5]: 8.00
cystitis events survey, Minimum [1, 5]: 3.0
Cystitis Improvement ≥2 Point, cats n/N ([1]; 6.25 μg/25 mL (Cohort 2)): 4/6
Cystitis Improvement ≥3 Point, cats n/N ([1]; 6.25 μg/25 mL (Cohort 2)): 2/6
cystitis events survey, Maximum [1, 6]: 13.0
cystitis events survey, Mean [1, 6]: 11.33
cystitis events survey, Median [1, 6]: 11.00
cystitis events survey, Minimum [1, 6]: 10.0
cystitis events survey, Maximum [1, 7]: 7.0
cystitis events survey, Mean [1, 7]: 5.20
cystitis events survey, Median [1, 7]: 5.00
cystitis events survey, Minimum [1, 7]: 3.0
cystitis events survey, Maximum [1, 8]: 16.0
cystitis events survey, Mean [1, 8]: 12.5
cystitis events survey, Median [1, 8]: 12.50
cystitis events survey, Minimum [1, 8]: 9.0
cystitis events survey, Maximum [1, 9]: 8.0
cystitis events survey, Mean [1, 9]: 5.33
cystitis events survey, Median [1, 9]: 6.00
cystitis events survey, Minimum [1, 9]: 3.0
Cystitis Improvement ≥2 Point, cats n/N ([1]; 12.5 μg/10 mL (Cohort 4)): 6/6
Cystitis Improvement ≥2 Point, percent of cats ([1]; 12.5 μg/10 mL (Cohort 4)): (100%)
Cystitis Improvement ≥3 Point, cats n/N ([1]; 12.5 μg/10 mL (Cohort 4)): 6/6
Cystitis Improvement ≥3 Point, percent of cats ([1]; 12.5 μg/10 mL (Cohort 4)): (100%)
Cystitis Improvement ≥2 Point, cats n/N ([1]; 12.5 μg/25 mL (Cohort 3)): 5/5
Cystitis Improvement ≥2 Point, percent of cats ([1]; 12.5 μg/25 mL (Cohort 3)): (100%)
Cystitis Improvement ≥3 Point, cats n/N ([1]; 12.5 μg/25 mL (Cohort 3)): 5/5
Cystitis Improvement ≥3 Point, percent of cats ([1]; 12.5 μg/25 mL (Cohort 3)): (100%)
cystitis events survey, Maximum ([1]; 25 μg (1 μg/mL), Day 0, n 6): 22.0
cystitis events survey, Mean ([1]; 25 μg (1 μg/mL), Day 0, n 6): 16.67
cystitis events survey, Median ([1]; 25 μg (1 μg/mL), Day 0, n 6): 16.50
cystitis events survey, Minimum ([1]; 25 μg (1 μg/mL), Day 0, n 6): 11.0
cystitis events survey, Maximum ([1]; 25 μg (1 μg/mL), Day 28, n 5): 7.0
cystitis events survey, Mean ([1]; 25 μg (1 μg/mL), Day 28, n 5): 4.40
cystitis events survey, Median ([1]; 25 μg (1 μg/mL), Day 28, n 5): 4.00
cystitis events survey, Minimum ([1]; 25 μg (1 μg/mL), Day 28, n 5): 2.0
Cystitis Improvement ≥2 Point, cats n/N ([1]; 25 μg/25 mL (Cohort 1)): 4/5
Cystitis Improvement ≥2 Point, percent of cats ([1]; 25 μg/25 mL (Cohort 1)): (80%)
Cystitis Improvement ≥3 Point, cats n/N ([1]; 25 μg/25 mL (Cohort 1)): 4/5
Cystitis Improvement ≥3 Point, percent of cats ([1]; 25 μg/25 mL (Cohort 1)): (80%)
Cystitis ≥2 and VSOM ≥2 Point success, cats n/N ([2]; 6.25 μg/25 mL (Cohort 2)): 3/6
Cystitis ≥3 and VSOM ≥2 Point success, cats n/N ([2]; 6.25 μg/25 mL (Cohort 2)): 2/6
Cystitis ≥3 and VSOM ≥2 Point success, percent of cats ([2]; 6.25 μg/25 mL (Cohort 2)): (33.3%)
Cystitis ≥2 and VSOM ≥2 Point success, cats n/N ([2]; 12.5 μg/10 mL (Cohort 4)): 4/6
Cystitis ≥2 and VSOM ≥2 Point success, percent of cats ([2]; 12.5 μg/10 mL (Cohort 4)): (66.7%)
Cystitis ≥3 and VSOM ≥2 Point success, cats n/N ([2]; 12.5 μg/10 mL (Cohort 4)): 4/6
Cystitis ≥3 and VSOM ≥2 Point success, percent of cats ([2]; 12.5 μg/10 mL (Cohort 4)): (66.7%)
Cystitis ≥2 and VSOM ≥2 Point success, cats n/N ([2]; 12.5 μg/25 mL (Cohort 3)): 6/6
Cystitis ≥2 and VSOM ≥2 Point success, percent of cats ([2]; 12.5 μg/25 mL (Cohort 3)): (100%)
Cystitis ≥3 and VSOM ≥2 Point success, cats n/N ([2]; 12.5 μg/25 mL (Cohort 3)): 6/6
Cystitis ≥3 and VSOM ≥2 Point success, percent of cats ([2]; 12.5 μg/25 mL (Cohort 3)): (100%)
Cystitis ≥2 and VSOM ≥2 Point success, cats n/N ([2]; 25 μg/25 mL (Cohort 1)): 4/5
Cystitis ≥2 and VSOM ≥2 Point success, percent of cats ([2]; 25 μg/25 mL (Cohort 1)): (80%)
Cystitis ≥3 and VSOM ≥2 Point success, cats n/N ([2]; 25 μg/25 mL (Cohort 1)): 4/5
decrease in effectiveness when VSOM and cystitis results are combined ([2]; Cohorts 1-2, overall): approximately 20%
density of CGRP and SP axons innervating cat bladder body ([3]; 5, 25 and 50 mcg single administration, 14 days post-treatment, vs saline): reduced
density of CGRP or SP fibers in cat bladder ([3]; 5 mcg RTX in 25 ml saline): modest reduction
density of CGRP and SP-immunoreactive axons innervating cat bladder body ([3]; 25 and 50 mcg, day 14, vs control saline): decreased
ablation of afferent nerves ([3]; 25 mcg and 50 mcg in 25 ml saline): effective at ablating afferent nerves
density of CGRP and SP fibers in body, trigon and fundus ([3]; 25 or 50 mcg in 25 ml saline, vs control): more significant reduction
